Patent US8906904B2, “Alkoxy pyrazoles as soluble guanylate cyclase activators” (Boehringer Ingelheim International GmbH, priority 2012, dated 2014)

Columns and labels:
[1] = target: T1, human soluble guanylate cyclase alpha 1 and beta 1 subunits (sGC) (Homo sapiens, UniProt Q02108+Q02153); assay: sGC cellular activator assay (cGMP, HTRF); format: cell-based; settings: CHO cells stably expressing human sGC alpha 1/beta 1, preincubated with 40 microM ODQ; cGMP readout; assay run with and without 50% human serum, Table 2 does not say which
T1 construct: expressed in transfected cells; host or cells: Chinese hamster ovary (CHO) cells, stably transfected
T1 sequence (Q02108 1-690): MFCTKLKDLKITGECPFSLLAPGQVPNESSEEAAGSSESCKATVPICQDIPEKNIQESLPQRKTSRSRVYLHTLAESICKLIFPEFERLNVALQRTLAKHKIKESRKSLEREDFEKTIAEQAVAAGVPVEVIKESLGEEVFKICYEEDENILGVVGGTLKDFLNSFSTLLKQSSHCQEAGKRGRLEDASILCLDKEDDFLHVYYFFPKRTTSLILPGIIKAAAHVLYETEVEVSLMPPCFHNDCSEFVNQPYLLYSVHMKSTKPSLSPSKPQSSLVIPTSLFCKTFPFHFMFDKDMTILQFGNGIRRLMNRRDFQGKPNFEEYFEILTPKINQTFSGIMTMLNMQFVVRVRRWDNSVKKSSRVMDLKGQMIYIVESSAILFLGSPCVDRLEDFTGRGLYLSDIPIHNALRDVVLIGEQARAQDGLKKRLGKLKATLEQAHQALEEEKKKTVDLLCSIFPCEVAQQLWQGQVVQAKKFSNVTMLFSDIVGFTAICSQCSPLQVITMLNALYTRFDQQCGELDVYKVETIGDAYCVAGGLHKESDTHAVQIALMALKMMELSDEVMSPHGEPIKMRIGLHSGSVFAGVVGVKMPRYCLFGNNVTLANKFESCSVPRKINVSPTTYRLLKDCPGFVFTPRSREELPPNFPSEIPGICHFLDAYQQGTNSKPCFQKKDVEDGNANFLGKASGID
T1 sequence (Q02153 1-619): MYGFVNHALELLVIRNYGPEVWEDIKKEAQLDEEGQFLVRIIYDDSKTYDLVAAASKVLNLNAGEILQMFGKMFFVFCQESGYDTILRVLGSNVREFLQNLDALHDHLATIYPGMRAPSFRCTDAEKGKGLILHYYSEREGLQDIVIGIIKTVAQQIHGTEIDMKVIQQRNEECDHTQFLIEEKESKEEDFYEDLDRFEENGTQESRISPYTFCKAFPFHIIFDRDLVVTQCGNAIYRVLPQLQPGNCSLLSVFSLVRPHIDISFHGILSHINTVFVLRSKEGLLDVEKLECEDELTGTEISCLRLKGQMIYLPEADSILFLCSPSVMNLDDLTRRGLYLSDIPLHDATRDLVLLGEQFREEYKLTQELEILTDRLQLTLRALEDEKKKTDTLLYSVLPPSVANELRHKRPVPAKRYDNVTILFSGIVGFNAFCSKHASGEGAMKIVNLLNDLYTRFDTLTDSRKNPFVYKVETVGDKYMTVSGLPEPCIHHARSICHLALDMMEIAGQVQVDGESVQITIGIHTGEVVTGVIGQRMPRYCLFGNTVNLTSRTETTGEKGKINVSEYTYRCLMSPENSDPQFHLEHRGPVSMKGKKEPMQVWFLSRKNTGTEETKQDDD
Outline: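 First, CHO-sGC (human α1β1) cells get 1 h ODQ at 40 microM with IBMX and 0.1% BSA. Finally, cGMP is quantified by HTRF and EC50 computed.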

[2] = human liver microsome (HLM) metabolic stability assay; format: in vitro ADME; settings: human liver microsomes; % hepatic blood flow calculated from t1/2
Outline: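 Compounds at 1 uM incubated with human liver microsomes plus NADPH at 37° C., sampled at 0, 5, 15, 30 and 60 min into cold acetonitrile and quantified by LC/MS/MS. t½ from the slope of ln % remaining vs time; CLint, CLh and % Qh derived from it (n=1).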

Compound | EC50 [1] | HLM (% Qh) [2]
CCOc1c(C(=O)O)cnn1-c1cccc(-c2cccc(C)c2OCc2ccc3c(c2)CCN(C2CCOCC2C)C3)n1 (centres unmarked) [Compound 64] | 0.071 µM | <24 % Qh
CCOc1c(C(=O)O)cnn1-c1cccc(-c2cccc(C)c2OCc2ccc3c(c2)CCN(C2CC(C)OC(C)C2)C3)n1 (centres unmarked) [Compound 65] | 0.056 µM | <24 % Qh
CCOc1c(C(=O)O)cnn1-c1cccc(-c2cccc(C)c2OCc2ccc3c(c2)CCN(C2CCOC(C)(C)C2)C3)n1 (centres unmarked) [Compound 66] | 0.11 µM | <24 % Qh
CCOc1c(C(=O)O)cnn1-c1cccc(-c2cccc(C)c2OCc2ccc3c(c2)CCN(C2CC(C)(C)OC(C)(C)C2)C3)n1 [Compound 67] | 0.32 µM | <24 % Qh
CCOc1c(C(=O)O)cnn1-c1cccc(-c2cccc(C)c2OCc2ccc3c(c2)CCN(CC2CCOC2)C3)n1 (centres unmarked) [Compound 68] | 0.038 µM | <24 % Qh
CCOc1c(C(=O)O)cnn1-c1cccc(-c2cccc(C)c2OCc2ccc3c(c2)CCN(CC2CCOCC2)C3)n1 [Compound 69] | 0.061 µM | <24 % Qh
CCOc1c(C(=O)O)cnn1-c1cccc(-c2cccc(C)c2OCc2ccc3c(c2)CCN(C(C)CS(C)(=O)=O)C3)n1 (centres unmarked) [Compound 70] | 0.18 µM | <24 % Qh
CCOc1c(C(=O)O)cnn1-c1cccc(-c2cccc(C)c2OCc2ccc3c(c2)CCN(C2CCOC2C)C3)n1 (centres unmarked) [Compound 71] | 0.067 µM | <24 % Qh
COc1c(C(=O)O)cnn1-c1cccc(-c2cccc(C)c2OCc2ccc3c(c2)CCN(CC2CC2(F)F)C3)n1 (centres unmarked) [Compound 72, 1-(6-{2-[2-(2,2-difluoro-cyclopropylmethyl)-1,2,3,4-tetrahydro-isoquinolin-6-ylmethoxy]-3-methyl-phenyl}-pyridin-2-yl)-5-methoxy-1H-pyrazole-4-carboxylic acid] | 0.017 µM | 47 % Qh
COc1c(C(=O)O)cnn1-c1cccc(-c2cccc(C)c2OCc2ccc3c(c2)CCN(C2CC(C)(C)OC(C)(C)C2)C3)n1 [Compound 73] | 0.25 µM | 36 % Qh
COc1c(C(=O)O)cnn1-c1cccc(-c2cccc(C)c2OCc2ccc3c(c2)CCN(CCS(C)(=O)=O)C3)n1 [Compound 74] | 0.073 µM | <24 % Qh
COc1c(C(=O)O)cnn1-c1cccc(-c2cccc(C)c2OCc2ccc3c(c2)CCN(C2C4CCOC4C2(C)C)C3)n1 (centres unmarked) [Compound 75] | 0.023 µM | 31 % Qh
CCOc1c(C(=O)O)cnn1-c1cccc(-c2cccc(C)c2OCc2ccc3c(c2)CCN(C2CCOCC2)C3)n1 [Compound 77] | 0.031 µM | <24 % Qh
CCOc1c(C(=O)O)cnn1-c1cccc(-c2cccc(C)c2OCc2ccc3c(c2)CCN(C2CCOC(C)C2)C3)n1 (centres unmarked) [Compound 78] | 0.048 µM | <24 % Qh
CCOc1c(C(=O)O)cnn1-c1cccc(-c2cccc(C)c2OCc2ccc3c(c2)CCN(C2CCOC(CC)C2)C3)n1 (centres unmarked) [Compound 79] | 0.033 µM | <24 % Qh
CCOc1c(C(=O)O)cnn1-c1cccc(-c2cccc(C)c2OCc2ccc3c(c2)CCN(CC2CCOC(C)(C)C2)C3)n1 (centres unmarked) [Compound 80] | 0.045 µM | <24 % Qh

Compound | EC50 [1] | HLM (% Qh) [2]
COc1c(C(=O)O)cnn1-c1cccc(-c2cccc(C)c2OCc2ccc3c(c2)CCN(C2CCOCC2OC)C3)n1 (centres unmarked) [Compound 81] | 0.41 µM | <24 % Qh
COc1c(C(=O)O)cnn1-c1cccc(-c2cccc(C)c2OCc2ccc3c(c2)CN(CC2CC(F)(F)C2)C3)n1 [Compound 82] | 0.008 µM | <24 % Qh
COc1c(C(=O)O)cnn1-c1cccc(-c2cccc(C(F)(F)F)c2OCc2ccc3c(c2)CCN(C2CCOCC2)C3)n1 [Compound 83] | 0.029 µM | <24 % Qh
COc1c(C(=O)O)cnn1-c1cccc(-c2cccc(C(F)(F)F)c2OCc2ccc3c(c2C)CCN(C2CCOCC2)C3)n1 [Compound 84] | 0.009 µM | <24 % Qh
COc1c(C(=O)O)cnn1-c1cccc(-c2cccc(C)c2OCc2ccc3c(c2)CN(C2COC2)C3)n1 [Compound 85] | 0.022 µM | <24 % Qh
COc1c(C(=O)O)cnn1-c1cccc(-c2cccc(C)c2OCc2ccc3c(c2)CCN(C2CCOCC2C)C3)n1 (centres unmarked) [Compound 86] | 0.041 µM | <24 % Qh
COc1c(C(=O)O)cnn1-c1cccc(-c2cccc(C)c2OCc2ccc3c(c2)CCN(C2CC4CCC(C2)O4)C3)n1 (centres unmarked) [Compound 87] | 0.055 µM | <24 % Qh
COc1c(C(=O)O)cnn1-c1cccc(-c2cccc(C(F)(F)F)c2OCc2ccc3c(c2C)CCN(C2COC2)C3)n1 [Compound 88] | 0.028 µM | <24 % Qh
COc1c(C(=O)O)cnn1-c1cccc(-c2cccc(C)c2OCc2ccc3c(c2)C(C)(C)CN(C2CCOCC2)C3)n1 [Compound 89] | 0.15 µM | 76 % Qh
COc1c(C(=O)O)cnn1-c1cccc(-c2cccc(C)c2OCc2ccc3c(c2)CCN([C@H]2CC[C@H](OC)CC2)C3)n1 [Compound 90] | 0.069 µM | <24 % Qh
COc1c(C(=O)O)cnn1-c1cccc(-c2cccc(C)c2OCc2ccc3c(c2)CCN([C@H]2CC[C@@H](OC)CC2)C3)n1 [Compound 91] | 0.075 µM | <24 % Qh
COc1c(C(=O)O)cnn1-c1cccc(-c2cccc(C)c2OCc2ccc3c(c2)CCN(CC2COCCO2)C3)n1 (centres unmarked) [Compound 92] | 0.02 µM | <24 % Qh
COc1c(C(=O)O)cnn1-c1cccc(-c2cccc(C(F)(F)F)c2OCc2ccc3c(c2)CN(C2CCOCC2)C3)n1 [Compound 93] | 0.037 µM | <24 % Qh
CCOc1c(C(=O)O)cnn1-c1cccc(-c2cccc(C)c2OCc2ccc3c(c2)CCN(C2CCOCC2F)C3)n1 (centres unmarked) [Compound 94] | 0.045 µM | <24 % Qh
CCOc1c(C(=O)O)cnn1-c1cccc(-c2cccc(C)c2OCc2ccc3c(c2)CCN(CC2CC(F)(F)C2)C3)n1 [Compound 96] | 0.024 µM | 30 % Qh
